Laboratory results as given in US20030013099A1, “Genes regulated by DNA methylation in colon tumors” (priority 2001, published 2003).

System: HCT116 cells
Experiment: microarray differential expression, HCT116 cells treated with 500 nM Aza
Assay type: cell-based, human
Settings: vs untreated, log base 2, negative = upregulation
Description: HT29 cells were derived from a Grade II adenocarcinoma of the colon obtained from a person. HCT116 cells are a subpopulation of malignant cells isolated from a primary cell culture of a single human colonic carcinoma (Brattain et al. (1981) Cancer Res 41:1751-6). HMEC cells are a primary human epithelial cell line derived from the breast tissue of a normal donor. HT29 and HCT116 colorectal carcinoma cells (American Type Culture Collection, Manassas Va.) were cultured in McCoy's medium supplemented with 10% fetal bovine serum (Invitrogen) at 37° C. and 5% CO2. Treated cells were exposed to 500 nM 5-aza-2-deoxycytidine (Aza; Sigma-Aldrich) 24 hours after passage in complete culture medium. Control cultures were treated in parallel with phosphate buffered saline vehicle. After twenty-four hours, culture medium was replaced with drug-free medium. Control and Aza-treated cells were subcultured at equal densities at 1 and 5 days after the initial treatment, and proliferation was measured at the subsequent time point using a Coulter counter (Beckman Coulter, Fullerton Calif.). Cells were harvested 5 days after the initial treatment.
Cells were harvested and lysed in 1 ml of TRIZOL reagent (5×10^6 cells/ml; Invitrogen). The lysates were vortexed thoroughly and incubated at room temperature for 2-3 minutes and extracted with 0.5 ml chloroform. The extract was mixed, incubated at room temperature for 5 minutes, and centrifuged at 16,000× g for 15 minutes at 4° C. The aqueous layer was collected, and an equal volume of isopropanol was added. Samples were mixed, incubated at room temperature for 10 minutes, and centrifuged at 16,000× g for 20 minutes at 4° C. The supernatant was removed, and the RNA pellet was washed with 1 ml of 70% ethanol, centrifuged at 16,000× g at 4° C., and resuspended in RNAse-free water. The concentration of the RNA was determined by measuring the optical density at 260 nm.
Poly(A) RNA was prepared using an OLIGOTEX mRNA kit (Qiagen) with the following modifications: OLIGOTEX beads were washed in tubes instead of on spin columns, resuspended in elution buffer, and then loaded onto spin columns to recover mRNA. To obtain maximum yield, the mRNA was eluted twice.
Each poly(A) RNA sample was reverse transcribed using MMLV reverse-transcriptase, 0.05 pg/μl oligo-d(T) primer (21mer), 1× first strand buffer, 0.03 units/ul RNAse inhibitor, 500 uM dAT?, 500 uM dGTP, 500 uM dTTP, 40 uM dCTP, and 40 uM either dCTP-Cy3 or dCTP-Cy5 (APB). The reverse transcription reaction was performed in a […] volume containing 200 ng poly(A) RNA using the GEMBRIGHT kit (Incyte Genomics). Specific control poly(A) RNAs (YCFRO6, YCFR45, YCFR67, YCFR85, YCFR43, YCFR22, YCFR23, YCFR25, YCFR44, YCFR26) were synthesized by in vitro transcription from non-coding yeast genomic DNA (W. Lei, unpublished). As quantitative controls, control mRNAs (YCFRO6, YCFR45, YCFR67, and YCFR85) at 0.002 ng, 0.02 ng, 0.2 ng, and 2 ng were diluted into reverse transcription reaction at ratios of 1:100,000, 1:10,000, 1:1000, 1:100 (w/w) to sample mRNA, respectively. To sample differential expression patterns, control mRNAs (YCFR43, YCFR22, YCFR23, YCFR25, YCFR44, YCFR26) were diluted into reverse transcription reaction at ratios of 1:3, 3:1, 1:10, 10:1, 1:25, 25:1 (w/w) to sample mRNA. Reactions were incubated at 37° C. for 2 hours, treated with […] of 0.5M sodium hydroxide, and incubated for 20 minutes at 85° C. to the stop the reaction and degrade the RNA.
cDNAs were purified using two successive CHROMA SPIN 30 gel filtration spin columns (Clontech). Cy3- and Cy5-labeled reaction samples were combined as described below and ethanol precipitated using […] of 100% ethanol. The cDNAs were then dried to completion using a SpeedVAC system (Savant Instruments, Holbrook N.Y.) and resuspended in 14 μl 5× SSC, 0.2% SDS. […]

Nc1ncn([C@H]2C[C@H](O)[C@@H](CO)O2)c(=O)n1 [Aza, 5-aza-2-deoxycytidine]
differential expression, Clone ID 2416222, HCT116 t/Aza (5d) (SEQ ID NO:1 hypothetical protein): −1.72 | differential expression, Clone ID 4103545, HCT116 t/Aza (5d) (SEQ ID NO:2 Incyte Unique): −1.35 | differential expression, Clone ID 322569, HCT116 t/Aza (5d) (SEQ ID NO:3 interferon-inducible protein): −1.17 | differential expression, Clone ID 5322134, HCT116 t/Aza (5d) (SEQ ID NO:5 chromosome 6p21.3, HLA Class I region): −1.72 | differential expression, Clone ID 1698458, HCT116 t/Aza (5d) (SEQ ID NO:6 unnamed protein product): −1.32 | differential expression, Clone ID 1871523, HCT116 t/Aza (5d) (SEQ ID NO:7 KIAA1046 protein): −0.85 | differential expression, Clone ID 6024084, HCT116 t/Aza (5d) (SEQ ID NO:8 putative tumor antigen): −2.66 | differential expression, Clone ID 3810006, HCT116 t/Aza (5d) (SEQ ID NO:9 Incyte Unique): −0.85 | differential expression, Clone ID 4508879, HCT116 t/Aza (5d) (SEQ ID NO:10 Incyte Unique): −0.89 | differential expression, Clone ID 4225379, HCT116 t/Aza (5d) (SEQ ID NO:11 U 6 RNA): −0.89 | differential expression, Clone ID 3463713, HCT116 t/Aza (5d) (SEQ ID NO:12 cDNA clone ZD16H10): −1.46 | differential expression, Clone ID 2998017, HCT116 t/Aza (5d) (SEQ ID NO:13, 14 T-cell receptor gamma): −1.23 | differential expression, Clone ID 4318273, HCT116 t/Aza (5d) (SEQ ID NO:15 pTR5 repetitive sequence): −1.07 | differential expression, Clone ID 1649414, HCT116 t/Aza (5d) (SEQ ID NO:16 Hep27 protein): −1.00 | differential expression, Clone ID 1684742, HCT116 t/Aza (5d) (SEQ ID NO:18 cDNA FLJ20222): −0.89 | differential expression, Clone ID 2825816, HCT116 t/Aza (5d) (SEQ ID NO:19 KIAA0412): −0.89 | differential expression, Clone ID 2440943, HCT116 t/Aza (5d) (SEQ ID NO:21 Incyte Unique): −1.00 | differential expression, Clone ID 1294339, HCT116 t/Aza (5d) (SEQ ID NO:22 PDGF-B): −0.89 | differential expression, Clone ID 5104741, HCT116 t/Aza (5d) (SEQ ID NO:23 cDNA FLJ10570): −1.23 | differential expression, Clone ID 1855389, HCT116 t/Aza (5d) (SEQ ID NO:24 pTR7 repetitive sequence): −1.51 | differential expression, Clone ID 5207613, HCT116 t/Aza (5d) (SEQ ID NO:25 chromosome 21 segment HS21C049): −1.67 | differential expression, Clone ID 3207902, HCT116 t/Aza (5d) (SEQ ID NO:26 hypothetical protein): −0.89 | differential expression, Clone ID 4999769, HCT116 t/Aza (5d) (SEQ ID NO:27 ZNFpT17): −1.09 | differential expression, Clone ID 408886, HCT116 t/Aza (5d) (SEQ ID NO:28 transketolase): −2.32 | differential expression, Clone ID 4764233, HCT116 t/Aza (5d) (SEQ ID NO:30 GAGE-8): −1.79 | differential expression, Clone ID 2511379, HCT116 t/Aza (5d) (SEQ ID NO:31 GAGE-7B): −1.34 | differential expression, Clone ID 2471817, HCT116 t/Aza (5d) (SEQ ID NO:33 cDNA clone YU62C03): −0.89 | differential expression, Clone ID 3333736, HCT116 t/Aza (5d) (SEQ ID NO:34 MAGE-11 antigen): −1.38 | differential expression, Clone ID 1304365, HCT116 t/Aza (5d) (SEQ ID NO:35 GAGE-8): −1.78 | differential expression, Clone ID 2657056, HCT116 t/Aza (5d) (SEQ ID NO:37, 38 MAGE-4b antigen): −1.58 | differential expression, Clone ID 2507719, HCT116 t/Aza (5d) (SEQ ID NO:39 MAGE-9 antigen): −1.70 | differential expression, Clone ID 4688, HCT116 t/Aza (5d) (SEQ ID NO:41 MAGE-1): −1.14 | differential expression, Clone ID 2068708, HCT116 t/Aza (5d) (SEQ ID NO:42 HM74): −0.46 | differential expression, Clone ID 23770, HCT116 t/Aza (5d) (SEQ ID NO:43 1-8D): −0.72 | differential expression, Clone ID 1616783, HCT116 t/Aza (5d) (SEQ ID NO:45 Incyte Unique): −0.80 | differential expression, Clone ID 820942, HCT116 t/Aza (5d) (SEQ ID NO:46 cDNA FLJ20120): −0.26 | differential expression, Clone ID 891322, HCT116 t/Aza (5d) (SEQ ID NO:47 Incyte Unique): −0.58 | differential expression, Clone ID 2755836, HCT116 t/Aza (5d) (SEQ ID NO:48 U5 A RNA): −0.58 | differential expression, Clone ID 1227521, HCT116 t/Aza (5d) (SEQ ID NO:49 phospholipid scramblase 1): −0.58 | differential expression, Clone ID 2200842, HCT116 t/Aza (5d) (SEQ ID NO:50 retinoid inducible gene 1): 0.00 | differential expression, Clone ID 2238363, HCT116 t/Aza (5d) (SEQ ID NO:51 interferon induced): −0.24 | differential expression, Clone ID 1495382, HCT116 t/Aza (5d) (SEQ ID NO:53 TRAIL): −0.26 | differential expression, Clone ID 1998269, HCT116 t/Aza (5d) (SEQ ID NO:55 rhoB): −0.63 | differential expression, Clone ID 1919287, HCT116 t/Aza (5d) (SEQ ID NO:56 hepatitis C-associated microtubular aggregate): 0.00 | differential expression, Clone ID 2637446, HCT116 t/Aza (5d) (SEQ ID NO:57 HE4 protein): −0.29 | differential expression, Clone ID 1962141, HCT116 t/Aza (5d) (SEQ ID NO:58 Similar to keratin 7): −0.92 | differential expression, Clone ID 4933404, HCT116 t/Aza (5d) (SEQ ID NO:60 Incyte Unique): −2.08 | differential expression, Clone ID 2150288, HCT116 t/Aza (5d) (SEQ ID NO:61 Keratin 8): −0.92 | differential expression, Clone ID 2697455, HCT116 t/Aza (5d) (SEQ ID NO:61 Keratin 8): −1.14
